Measurements as given in patent US10842150B2, “Method of controlling Fusarium on potato using lower alkyl naphthalene” (1,4Group, Inc., priority 2018, dated 2020).
“Also recorded” adds a separate entry of the source.

Assays:
[1] = system: Fusarium spp.; settings: two storage trials over two years; cited from earlier work
[2] = system: Fusarium wilt; settings: treatment of potato tuber; cited from earlier work
[3] = system: F. oxysporum; test: Single spore isolate plates of F. oxysporum exposed to 1,4-DMN vapour; colony count and mycelium diameter; type: cell-based, Fusarium oxysporum
Source text: F. oxysporum was isolated from the surface of potato tuber using the Fusarium selective media Nash-Snider, to which cultures were transferred and maintained on nutritionally complex potato dextrose agar plates. DNA sequencing using selective primers NL1, NL2, ITS1F, and ITS2R confirmed the fungus to be F. oxysporum.
A single spore isolation technique was utilized to record the number and growth response of the spores treated with 1,4-DMN in comparison with the spores treated with water (i.e., the Control). Single spore isolate plates were contained in vacuum sealed chambers and incubated at a constant temperature of about 22° C., while exposed to 7.5 μl of 1,4-DMN via aerosol dispersion for four days. After a day of rest, the spores on each plate were measured and counted.
Potato skin scrapings were cultured on the Fusarium selective media Nash Snider Agar, and later transferred and maintained on nutritionally complex Potato Dextrose Agar (PDA) (Step 1.1 in FIG. 1). DNA isolations were performed on single spore isolates using a Power Soil DNA Isolation Kit (Step 1.2 in FIG. 1). Several primers as shown in FIG. 2 were studied for amplification of Fungal DNA. Fusarium selective primers NL1, NL2, ITS1F, and ITS2 allowed PCR amplification of fungal strains genomically similar to Fusarium. […] The DNA were sequenced, and the sequence data were analyzed using NCBI BLASTn sequence alignment (Step 1.4 in FIG. 1). […] The strain identified as F. oxysporum was then subjected to treatments of DMN (7.5 μl) in specialized airtight bins, and incubated at a constant temperature of about 25° C. for four days (Step 1.5 in FIG. 1). […] Then, colony quantity and mycelium diameter were determined (Step 1.6 in FIG. 1).

Row | Compound | efficacy in suppressing tuber infection caused by Fusarium spp. (in words) [1] | effect in controlling Fusarium wilt development (in words) [2] | also measured
1 | OO [hydrogen peroxide] | moderately effective | – | –
2 | c1ccc2ncccc2c1 [quinoline] | – | limited effect | –
3 | CO/C=C(/C(=O)OC)c1ccccc1Oc1cc(Oc2ccccc2C#N)ncn1 [azoxystrobin] | moderately effective | – | –
4 | Cc1ccc(C)c2ccccc12 [1,4-DMN, 1,4-dimethyl naphthalene] | – | – | Average Colony mycelium diameter ([3]; 7.5 μl 1,4-DMN via aerosol dispersion in sealed chamber, four days, about 22° C. / 25° C., Control 9.89 cm): 2.94 cm; Average Colonies per Plate ([3]; 7.5 μl 1,4-DMN, four days, Control 4.05): 4.125; Total Colonies ([3]; 7.5 μl 1,4-DMN, four days, Control 162): 165; mycelium growth of F. oxysporum versus untreated Control (in words) ([3]; exposure to 1,4-DMN for four days): slower mycelium diameter growth; also recorded: inhibition of mycelium growth
5 | N#Cc1c[nH]cc1-c1cccc2c1OC(F)(F)O2 [fludioxonil] | – | limited effect | –
6 | OP(O)O [Phosphorous acid, phosphorous acid] | moderately effective | – | –
